Data from the NIST ThermoML archive (doi:10.1021/je800145h).

Conditions: Liquid

CC(C)CO [2-methyl-1-propanol]
Conditions	vapor or sublimation pressure [kPa]
357.45 K	40
364.17 K	53.33
369.67 K	66.66
374.35 K	79.99
378.45 K	93.32
379.96 K	98.66

CC(C)(C)O [2-methylpropan-2-ol]
Conditions	vapor or sublimation pressure [kPa]
333.9 K	40
340.13 K	53.33
345.21 K	66.66
349.53 K	79.99
353.32 K	93.32
354.61 K	98.66

CCCCO [butan-1-ol]
Conditions	vapor or sublimation pressure [kPa]
366.76 K	40
373.74 K	53.33
379.43 K	66.66
384.26 K	79.99
388.49 K	93.32
390.04 K	98.66

CCC(C)O (stereo unspecified) [butan-2-ol]
Conditions	vapor or sublimation pressure [kPa]
349.73 K	40
356.36 K	53.33
361.77 K	66.66
366.36 K	79.99
370.38 K	93.32
371.86 K	98.66

CCO [ethanol]
Conditions	vapor or sublimation pressure [kPa]
329.62 K	40
335.99 K	53.33
341.2 K	66.66
345.6 K	79.99
349.42 K	93.32
350.82 K	98.66

CO [methanol]
Conditions	vapor or sublimation pressure [kPa]
315.75 K	40
322.15 K	53.33
327.34 K	66.66
331.73 K	79.99
335.57 K	93.32
336.98 K	98.66

CCCO [propan-1-ol]
Conditions	vapor or sublimation pressure [kPa]
347.55 K	40
354.18 K	53.33
359.56 K	66.66
364.11 K	79.99
368.08 K	93.32
369.55 K	98.66

CC(C)O [propan-2-ol]
Conditions	vapor or sublimation pressure [kPa]
333.94 K	40
340.18 K	53.33
345.25 K	66.66
349.55 K	79.99
353.3 K	93.32
354.67 K	98.66

C1CCOCC1 [tetrahydropyran]
Conditions	mass density [kg/m3]
298.15 K, 101.33 kPa, Vibrating tube method	879

Conditions	vapor or sublimation pressure [kPa]
332.98 K	40
341.09 K	53.33
347.72 K	66.66
353.38 K	79.99
358.37 K	93.32
360.22 K	98.66
361.23 K	101.32
